The values that follow come from publication PMC9404989, “Design and Evaluation of Short Bovine Lactoferrin-Derived Antimicrobial Peptides against Multidrug-Resistant Enterococcus faecium” (Antibiotics, 2022).

“And” between values parts separate entries of the source, which are not always exact repeats. Equal values may be shown once. No end group written: not given here.

Assay [1] relates to E. faecium E007 established biofilms. The class given is cell-based, Enterococcus faecium. The note with it: for concentration killing 50% of live bacteria cells in established biofilms: strain E007, 24 h established biofilms, XTT; for established biomass disrupted: strain E007, at 32 µg/mL; for MBEC50: strain E007, biomass by CV. On the technique in general: Tetrazolium dyes change colour on reduction, which living cells bring about.

Assay [2] has as its system E. faecium C68 biofilm formation. In words: Prevention of E. faecium biofilm formation (XTT, crystal violet). In kind it is cell-based, Enterococcus faecium. The following applies: for biomass depleted / biofilm formation inhibited: at 32 µg/mL, biofilm formation stage. The protocol: We evaluated the ability of the lactoferrin-derived peptides to inhibit biofilm formation following an established protocol with modifications. In short, we prepared exponential cultures of E. faecium C68 (adjusted to OD600 = 0.01) in BHI media (supplemented with 0.2% glucose) from overnight grown cultures. We added 90 µL of the bacterial culture to 10 µL of serially diluted 10× peptide solution in flat-bottomed 96-well polystyrene microtiter plates (Cat No. 3595, Corning, NY, USA) and then incubated the plates at 37 °C for 24 h. We considered media containing bacteria and water as the positive control, while media with water served as the negative control. After incubation, we carefully pipetted out the media and washed the wells with PBS (Gibco, Waltham, MA, USA) to remove loosely attached planktonic cells. We quantified the biomass by staining the biofilms with crystal violet following an established protocol and quantitated the concentration of peptide that inhibits 50% of biofilm formation (MBIC50). Furthermore, we measured the live cell count of the biofilms using XTT [2,3-bis(2-methyloxy-4-nitro-5-sulfophenyl)-2H-tertazolium-5-carboxanilide] dye (ATCC, Manassas, VA, USA). We calculated the percentage of biofilm growth by assuming that there was 100% biofilm growth in wells with bacteria without peptide treatment.

The subject of assay [3] is E. faecium strain C68 persister cells. As to the kind of experiment: Persister cell time-kill assay. In kind it is cell-based, Enterococcus faecium. The protocol:
(§1) For the generation of antibiotic-induced persister cells, we followed an established protocol. In brief, 25 mL of E. faecium strain C68 culture was grown to the stationary phase and then treated with gentamicin at 400 μg/mL for 5 h. We then disposed of the antibiotic-containing media and regrew the bacteria for another 18 h in fresh media. To produce stable persister cells, we repeated the cycle of antibiotic exposure and regrowth five times. The bacteria culture was then washed with the same volume of phosphate-buffered saline (PBS) 3× times and adjusted to 1 × 10^7 CFU/mL in PBS. For killing kinetics of the persister cells, we added 1 mL of the cell suspension to the wells of a 2 mL deep well assay block (Cat No. 3960, Corning, NY, USA) containing 10× MICs of 5L and 6L and incubated them at 37 °C, with shaking at 225 rpm. At specific times (0, 15, 30, 60, and 120 min), we collected 20 μL samples, diluted them serially, and then plated them on tryptic soy agar (TSA) (BD Difco, Franklin Lakes, NJ, USA) plates for 18 h at 37 °C for colony counting. We performed the experiments in duplicate. As a comparison, we prepared the exponential cells of E. faecium strain C68 in PBS and analyzed their killing kinetics in the same manner as described for persister cells.

Assay [4] concerns E. faecium strain C68. As to the kind of experiment: ATP release assay (luciferase). In kind it is cell-based, Enterococcus faecium. The following applies: 32 µg/mL, 37 °C, 30 min. The protocol:
To determine the ATP leakage potential of the peptides, we employed a luciferase-based assay detailed in [32]. In brief, we washed the exponential phase of E. faecium strain C68 bacteria three times with PBS (pH 7.4) and adjusted it to OD600 = 0.4 in PBS. Following treatment of the bacteria with 32 µg/mL of 5L and 6L peptides at 37 °C for 30 min, we centrifuged the cells at 14,000 rpm for 5 min. We transferred 50 µL of the supernatant of each sample to each well of black, clear-bottom, 96-well plates (Cat No. 3904, Corning, New York, NY, USA) containing 50 µL of BacTiter-Glo reagent (Promega, Madison, WI, USA) and measured plate luminescence after 5 min of incubation at room temperature in the dark with a SpectraMax i3x reader (Molecular Devices, San Jose, CA, USA).

Assay [5] deals with E. faecium strain C68. In words: microbe, parasite or virus in culture. In kind it is cell-based, Enterococcus faecium. The note with it: strain C68, 18 h. The protocol: (§2) To determine the MICs of peptides, we used the broth microdilution method described by the Clinical and Laboratory Standards Institute. We made serial dilutions of 10× concentration (10 µL) for each peptide in duplicates in 96-well plates (Cat No. 3595, Corning, New York, NY, USA). We added 90 µL of logarithmic-phase bacteria at 5 × 10^5 CFU/mL (in BHI media) to the peptides and then incubated the plates at 37 °C for 18 h. We measured the OD600 absorbance readings using the Spectra Max i3x spectrophotometer (Molecular Devices, San Jose, CA, USA) and determined the MIC as the peptide concentration that inhibits the growth of bacteria.
To investigate the activity of peptides in various salt concentrations, we included physiologically relevant salts in the BHI medium.

The subject of assay [6] is E. faecium strain C68 exponential cells. In words: Exponential cell time-kill assay. The note with it: 10× MIC, PBS. The class given is cell-based, Enterococcus faecium. The method, then:
as §1

Assay [7] deals with drug-resistant E. faecium clinical isolates. The class given is cell-based, Enterococcus faecium. The note with it: strains D14, D24, D25, D29, C68 and WC176. The protocol:
as §2

For assay [8], the system named is E. faecalis MMH594. In words: microbe, parasite or virus in culture. In kind it is cell-based. The note with it: MMH594, 18 h. The method, then:
as §2

In assay [9] the test system is E. faecalis V583. In words: microbe, parasite or virus in culture. The class given is cell-based. The following applies: V583, 18 h. The protocol:
as §2

Assay [10] has as its system E. faecium D25. In words: microbe, parasite or virus in culture. In kind it is cell-based, Enterococcus faecium. The following applies: ampicillin resistant, vancomycin-sensitive isolate. The protocol: as §2
Assay [11] has as its system E. faecium D14. As to the kind of experiment: microbe, parasite or virus in culture. The note with it: ampicillin resistant, vancomycin-sensitive isolate. The class given is cell-based, Enterococcus faecium. The method, then: as §2
Assay [12] concerns E. faecium D24. In words: microbe, parasite or virus in culture. The following applies: ampicillin resistant, vancomycin-sensitive isolate. In kind it is cell-based, Enterococcus faecium. The protocol: as §2
In assay [13] the test system is E. faecium E007. In words: microbe, parasite or virus in culture. The class given is cell-based, Enterococcus faecium. The note with it: tetracycline-resistant strain. The protocol:
as §2

Assay [14] concerns E. faecium D29. In words: microbe, parasite or virus in culture. In kind it is cell-based, Enterococcus faecium. The following applies: ampicillin resistant, vancomycin-sensitive isolate. The method, then:
as §2

In assay [15] the test system is E. faecium strain C68. In words: microbe, parasite or virus in culture. The note with it: strain C68, 18 h. In kind it is cell-based, Enterococcus faecium. The method, then:
as §2
The source holds these as a separate data set.

Assay [16] deals with E. faecalis OG1RF. As to the kind of experiment: MIC assay, E. faecalis OG1RF. The note with it: rifampin and fusidic acid resistant. The class given is cell-based. The method, then: as §2

Consider RRWLWLRRWLWR-NH2 [Peptide 5L], for which, in assay [1], the “concentration killing 50% of live bacteria cells in established biofilms” value was 8 µg/mL, the established biomass disrupted is reported as 75% and the MBEC50 was 10 µg/mL. In assay [2], the “biomass depleted / biofilm formation inhibited” value was 90%. The “reduction of viable persister cells” value in assay [3] (10× MIC (40 µg/mL), 1 × 10^7 CFU, PBS, within 120 min) is reported as 3 logs. Besides, in [4], the “ATP leakage (luminescence)” value is recorded as “increased luminescence levels”. Besides, in [5], the “MIC + CaCl2 (2.5 mM)” value amounted to 16 µg/mL, the “MIC + MgSO4 (1 mM)” value is on record as 8 µg/mL, the “MIC + NaCl (150 mM)” value was determined as 4 µg/mL and the “MIC + ZnSO4 (8 µM)” value is listed as 4 µg/mL. The “time to eliminate all 10^7 CFU of exponential cells” value in assay [6] stood at 120 min. The “MIC range against clinical isolates of E. faecium” value in assay [7] was 4 to 16 µg/mL. Also, in [8], the “MIC E. faecalis MMH594” value was greater than 32 µg/mL. Moreover, the “MIC E. faecalis V583” value in assay [9] is greater than 32 µg/mL. Also, the “MIC D25” value in assay [10] came out at 4 µg/mL. Also, the “MIC D14” value in assay [11] came to 16 µg/mL. In addition, the “MIC D24” value in [12] was 8 µg/mL. The “MIC E007” value in assay [13] amounted to 4 µg/mL. Besides, in assay [14], the “MIC D29” value is 16 µg/mL. Further, in [15], the “MIC EF C68” value was determined as 4 µg/mL and the “MIC Media Only” value worked out at 4 µg/mL. In assay [16], the “MIC E. faecalis OG1RF” value is greater than 32 µg/mL.
Consider RRWLWRLRWLWR-NH2 [Peptide 6L], for which, in [1], the “concentration killing 50% of live bacteria cells in established biofilms” value was 8 µg/mL, the established biomass disrupted is recorded as 75% and the MBEC50 was found to be 8 µg/mL. Further, the “concentration killing 50% of live bacterial cells during biofilm formation stage” value in assay [2] (XTT, 24 h, BHI + 0.2% glucose) was 1.2 µg/mL. Also, in [2], the “biomass depleted / biofilm formation inhibited” value was 90% and 92%. Besides, in assay [3] (40 µg/mL, 1 × 10^7 persister cells), the “time to eliminate all persister cells” value was no more than 60 min. The “ATP leakage (luminescence)” value in [4] is “increased luminescence levels”. Further, in assay [5], the “MIC + CaCl2 (2.5 mM)” value turned out to be 8 µg/mL, the “MIC + MgSO4 (1 mM)” value worked out at 8 µg/mL, the “MIC + NaCl (150 mM)” value was 4 µg/mL and the “MIC + ZnSO4 (8 µM)” value is 4 µg/mL. For the same substance, the “time to eliminate all 10^7 CFU of exponential cells” value in assay [6] was 60 min. In addition, the “MIC range against clinical isolates of E. faecium” value in assay [7] fell in the range of 4 to 16 µg/mL. The “MIC E. faecalis MMH594” value in [8] was greater than 32 µg/mL. For the same substance, the “MIC E. faecalis V583” value in [9] was greater than 32 µg/mL. In addition, the “MIC D25” value in assay [10] stood at 4 µg/mL. Besides, the “MIC D14” value in assay [11] turned out to be 8 µg/mL. The “MIC D24” value in [12] is recorded as 8 µg/mL. Moreover, the “MIC E007” value in assay [13] is recorded as 4 µg/mL. The “MIC D29” value in [14] was 8 µg/mL. Further, in assay [15], the “MIC EF C68” value was determined as 4 µg/mL and the “MIC Media Only” value is given as 4 µg/mL. In addition, in [16], the “MIC E. faecalis OG1RF” value was greater than 32 µg/mL.
